US20070219209A1, “Piperazine Derivatives Of Alkyl Oxindoles” (GYÓGYSZERGYÁR RT., priority 2004, published 2007)
Structures can show the parent of a compound that is named as a salt.

Key:
5-HT7 receptor = target: T1, 5-HT7 receptor (Homo sapiens, UniProt P34969); assay: 5-HT7 receptor binding experiment; details: human cloned receptors; ligand 3H-LSD 1.0 nM; non-specific clozapine 25 μM
T1 construct: expressed in transfected cells
Description: For the determination of 5-HT7 receptor binding human cloned receptors were used. The α1 receptor binding was determined from isolated frontal cortex preparation of male Wistar rats weighing 120-200 g. The 5-HT uptake measurements were performed on samples from isolated cortex of male rats. The protein contents of membrane preparations were determined by the method of Lowry (1951).
In the course of 5-HT7 and α1 receptor binding studies the ligands were ^3H-lizergic acid diethyl amide (LSD) (1.0 nM) and ^3H-prazosine (0.3 nM). Clozapine (25 μM) and prazosine (1 μM) were used for the measurement of non-specific bindings. The α1 binding studies were performed according to the methods of Reader and Greengrass (Reader, T. A., Briere, R., Grondin, L.: J. Neural Transm. 68, p. 79 (1987); Greengrass, P., Brenner, R.: Eur. J. Pharmacol. 55, p. 323 (1979)). In the serotonin uptake inhibition studies the ligand was tritiated serotonin, the non-specific ligand was fluoxetine (100 μM). On the test results Ki values were calculated.

T1 sequence (P34969 whole entry): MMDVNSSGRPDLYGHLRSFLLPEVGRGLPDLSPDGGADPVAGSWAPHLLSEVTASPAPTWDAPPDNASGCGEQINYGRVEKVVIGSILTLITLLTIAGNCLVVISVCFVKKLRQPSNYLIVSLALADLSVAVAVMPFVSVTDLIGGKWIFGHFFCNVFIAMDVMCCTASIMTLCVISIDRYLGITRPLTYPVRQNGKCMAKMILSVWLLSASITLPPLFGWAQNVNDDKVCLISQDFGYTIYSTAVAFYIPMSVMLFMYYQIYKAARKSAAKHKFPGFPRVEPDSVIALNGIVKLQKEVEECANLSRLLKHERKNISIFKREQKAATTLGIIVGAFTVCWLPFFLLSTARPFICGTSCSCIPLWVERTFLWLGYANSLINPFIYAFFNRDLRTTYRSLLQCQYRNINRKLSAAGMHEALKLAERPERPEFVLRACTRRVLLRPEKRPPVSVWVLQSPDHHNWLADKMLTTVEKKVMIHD

| melting point | Ki (5-HT7 receptor) | Structure (SMILES) |
| --- | --- | --- |
| 180 to 183 °C | – | O=C1Nc2ccccc2C1CCCCN1CCN(c2ccc(F)c(Cl)c2)CC1 (stereo not drawn) (as salt: hydrochloride) [Example 14, 3-{4-[4-(3-Chloro-4-fluorophenyl)-piperazin-1-yl]-butyl}-1,3-dihydro-2H-indol-2-one monohydrochloride] |
| 136 to 137 °C | < 100 µM | O=C1Nc2ccccc2C1CCCCN1CCN(c2ccc(Cl)cc2)CC1 (stereo not drawn) [Example 17, 3-{4-[4-(4-Chlorophenyl)-piperazin-1-yl]-butyl}-1,3-dihydro-2H-indol-2-one] |
| 112 to 114 °C | < 100 µM | O=C1Nc2ccccc2C1CCCCN1CCN(c2cccc(Cl)c2)CC1 (stereo not drawn) [Example 18, 3-{4-[4-(3-Chlorophenyl)-piperazin-1-yl]-butyl}-1,3-dihydro-2H-indol-2-one] |
| 123 to 125 °C | – | O=C1Nc2ccccc2C1CCCCN1CCN(c2ccc(Cl)c(C(F)(F)F)c2)CC1 (stereo not drawn) (as salt: hydrochloride) [Example 15, 3-{4-[4-(4-Chloro-3-trifluoromethylphenyl)-piperazin-1-yl]-butyl}-1,3-dihydro-2H-indol-2-one monohydrochloride] |
| 149 to 151 °C | – | O=C1Nc2cc(F)ccc2C1CCCCN1CCN(c2ccc(Cl)cc2)CC1 (stereo not drawn) (as salt: hydrochloride) [Example 8, 3-{4-[4-(4-Chlorophenyl)-piperazin-1-yl]-butyl}-6-fluoro-1,3-dihydro-2H-indol-2-one monohydrochloride] |
| – | < 100 µM | O=C1Nc2ccc(F)cc2C1CCCCN1CCN(c2cccc(Cl)c2)CC1 (stereo not drawn) [Example 6, 3-{4-[4-(3-Chlorophenyl)-piperazin-1-yl]-butyl}-5-fluoro-1,3-dihydro-2H-indol-2-one monohydrochloride] |
| 193 to 196 °C | – | O=C1Nc2ccc(F)cc2C1CCCCN1CCN(c2ccc(Cl)cc2)CC1 (stereo not drawn) (as salt: hydrochloride) [Example 7, 3-{4-[4-(4-Chlorophenyl)-piperazin-1-yl]-butyl}-5-fluoro-1,3-dihydro-2H-indol-2-one monohydrochloride] |
| 180 to 184 °C | – | O=C1Nc2ccc(F)cc2C1CCCCN1CCN(c2cccc(Cl)c2)CC1 (stereo not drawn) (as salt: hydrochloride) [Example 6, 3-{4-[4-(3-Chlorophenyl)-piperazin-1-yl]-butyl}-5-fluoro-1,3-dihydro-2H-indol-2-one monohydrochloride] |
| 118 to 120 °C | – | O=C1Nc2ccc(F)cc2C1CCCCN1CCN(c2ccc(Cl)c(Cl)c2)CC1 (stereo not drawn) [Example 23, 3-{4-[4-(3,4-dichlorophenyl)-piperazine-1-yl]-butyl}-5-fluoro-1,3-dihydro-2H-indol-2-one] |
| – | < 100 µM | O=C1Nc2ccc(F)cc2C1CCCCN1CCN(c2ccc(Cl)cc2)CC1 (stereo not drawn) [Example 7, 3-{4-[4-(4-Chlorophenyl)-piperazin-1-yl]-butyl}-5-fluoro-1,3-dihydro-2H-indol-2-one monohydrochloride] |
| – | < 100 µM | O=C1Nc2ccccc2C1CCCCN1CCN(c2ccc(Cl)c(C(F)(F)F)c2)CC1 (stereo not drawn) [Example 15, 3-{4-[4-(4-Chloro-3-trifluoromethylphenyl)-piperazin-1-yl]-butyl}-1,3-dihydro-2H-indol-2-one monohydrochloride] |
| 110 to 113 °C | – | O=C1Nc2ccccc2C1CCCCN1CCN(c2ccccc2)CC1 (stereo not drawn) [Example 24, 3-[4-(4-phenyl-piperazin-1-yl)-butyl]-1,3-dihydro-2H-indol-2-one] |
| 135 to 137 °C | < 100 µM | O=C1Nc2ccc(F)cc2C1CCCCN1CCN(c2ccc(F)cc2)CC1 (stereo not drawn) [Example 16, 5-Fluoro-3-{4-[4-(4-fluorophenyl)-piperazin-1-yl]-butyl}-1,3-dihydro-2H-indol-2-one] |
| 122 to 124 °C | < 100 µM | Cc1ccc2c(c1)C(CCCCN1CCN(c3cccc(Cl)c3)CC1)C(=O)N2 (stereo not drawn) [Example 9, 3-{4-[4-(3-Chlorophenyl)-piperazin-1-yl]-butyl}-5-methyl-1,3-dihydro-2H-indol-2-one] |
| – | < 100 µM | O=C1Nc2ccccc2C1CCCCN1CCN(c2ccc(F)c(Cl)c2)CC1 (stereo not drawn) [Example 14, 3-{4-[4-(3-Chloro-4-fluorophenyl)-piperazin-1-yl]-butyl}-1,3-dihydro-2H-indol-2-one monohydrochloride] |
| 113 to 115 °C | < 100 µM | O=C1Nc2ccccc2C1CCCCN1CCN(c2ccc(F)cc2)CC1 (stereo not drawn) [Example 11, 3-{4-[4-(4-Fluorophenyl)-piperazin-1-yl]-butyl}-1,3-dihydro-2H-indol-2-one] |
| 159 to 161 °C | < 100 µM | Cc1ccc2c(c1)C(CCCCN1CCN(c3ccc(Cl)cc3)CC1)C(=O)N2 (stereo not drawn) [Example 10, 3-{4-[4-(4-Chlorophenyl)-piperazin-1-yl]-butyl}-5-methyl-1,3-dihydro-2H-indol-2-one] |
| – | < 100 µM | O=C1Nc2cc(F)ccc2C1CCCCN1CCN(c2ccc(Cl)cc2)CC1 (stereo not drawn) [Example 8, 3-{4-[4-(4-Chlorophenyl)-piperazin-1-yl]-butyl}-6-fluoro-1,3-dihydro-2H-indol-2-one monohydrochloride] |
| 140 to 144 °C | – | O=C1Nc2ccc(F)cc2C1CCCCN1CCN(c2ccccc2)CC1 (stereo not drawn) |
| 112 to 114 °C | < 100 µM | O=C1Nc2ccccc2C1CCCCN1CCN(c2ccc(Cl)c(Cl)c2)CC1 (stereo not drawn) [Example 12, 3-{4-[4-(3,4-Dichlorophenyl)-piperazin-1-yl]-butyl}-1,3-dihydro-2H-indol-2-one] |
